The target of experiment [1] is T1, Tubulin beta chain (Bos taurus, UniProt Q6B856). The experiment can be described thus: (§1) Inhibition of tubulin polymerization.
Experiment [2] concerns the target Tubulin (Bos taurus) (UniProt Q6B856+Q862L2+Q862F3). The experiment can be described thus: Inhibition of tubulin polymerization by colchicine to that of compound (IC50colchicine/IC50 drug). Format: functional.
Experiment [3] concerns the target T1, Tubulin beta chain. The experiment is described as §1. The class given is functional.

The results in this text go back to ChEMBL document CHEMBL1130240, “Synthesis and structure-activity profiles of A-homoestranes, the estratropones” (J Med Chem, 1997).

As a reminder, the IC50 is the concentration needed to halve the response being measured.

T1 sequence (Q6B856 whole entry): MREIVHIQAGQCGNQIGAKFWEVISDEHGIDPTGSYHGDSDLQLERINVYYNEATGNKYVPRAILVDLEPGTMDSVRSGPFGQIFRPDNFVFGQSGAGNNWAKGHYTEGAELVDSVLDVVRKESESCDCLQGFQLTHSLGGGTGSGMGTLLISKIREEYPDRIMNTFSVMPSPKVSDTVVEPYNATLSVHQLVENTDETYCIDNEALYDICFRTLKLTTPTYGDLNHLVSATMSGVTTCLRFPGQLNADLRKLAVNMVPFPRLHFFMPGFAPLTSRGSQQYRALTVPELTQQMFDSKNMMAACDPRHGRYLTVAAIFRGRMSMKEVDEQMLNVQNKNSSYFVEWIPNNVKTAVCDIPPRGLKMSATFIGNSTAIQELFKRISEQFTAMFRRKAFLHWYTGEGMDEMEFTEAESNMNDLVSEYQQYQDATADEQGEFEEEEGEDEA

As for `COc1cc2c(ccc1=O)[C@H]1CC[C@]3(C)[C@@H](O)CC[C@H]3[C@@H]1CC2`, 2.1 µM corresponded to half-maximal inhibition in experiment [1] (IC50). In experiment [2], `C[C@]12CC[C@@H]3c4ccc(=O)ccc4CC[C@H]3[C@@H]1CC[C@@H]2O` displayed an Activity of 2.5. In experiment [3], this compound came in with an IC50 of 4.4 µM. Take `COc1cc2c(ccc1=O)CC[C@@H]1[C@@H]2CC[C@]2(C)[C@@H](O)CC[C@@H]12`: the IC50 in experiment [1] is 29.8 µM. The same measure, in the same setting: the value for `COc1cc2c(cc1O)CC[C@@H]1[C@@H]2CC[C@]2(C)[C@@H](O)CC[C@@H]12` [2-METHOXYESTRADIOL] was 14.2 µM. The compound `C[C@]12CC[C@@H]3c4ccc(Br)c(=O)cc4CC[C@H]3[C@@H]1CC[C@@H]2O` registered an Activity in experiment [2] of 3.9. The same compound had an IC50 in experiment [3] of 2.9 µM.

Turning to `C[C@]12CC[C@@H]3c4ccc(=O)c(Cl)cc4CC[C@H]3[C@@H]1CC[C@@H]2O`, in experiment [2], the Activity is 1.1. This compound yielded an IC50 in experiment [3] of 9.8 µM.

With `COc1ccc2c(cc1=O)[C@H]1CC[C@]3(C)[C@@H](O)CC[C@H]3[C@@H]1CC2`, it took 27.5 µM to reach half-maximal inhibition in experiment [1] (IC50). The same measure, in the same setting: the value for `COc1ccc2c(cc1=O)CC[C@@H]1[C@@H]2CC[C@]2(C)[C@@H](O)CC[C@@H]12` was 8.1 µM. Compound `C[C@]12CC[C@@H]3c4ccc(Cl)c(=O)cc4CC[C@H]3[C@@H]1CC[C@@H]2O` displayed an Activity in experiment [2] of 4. In experiment [3], this compound had a half-maximal inhibitory concentration (IC50) of 2.8 µM. In experiment [1], `C[C@]12CC[C@@H]3c4cccc(=O)cc4CC[C@H]3[C@@H]1CC[C@@H]2O` registered a half-maximal inhibitory concentration (IC50) of 7.2 µM. On the same count and under the same terms, to `CCOc1cc2c(ccc1=O)[C@H]1CC[C@]3(C)[C@@H](O)CC[C@H]3[C@@H]1CC2` belongs 5.9 µM. Same read-out and setting: the value for `C[C@]12CC[C@@H]3c4ccc(=O)c(Br)cc4CC[C@H]3[C@@H]1CC[C@@H]2O` was 11.2 µM.
